Counter-ions that a name gives are not always drawn.

This is an account of results in paper PMC8510236, “Unraveling the Compositional and Molecular Features Involved in Lysozyme-Benzothiazole Derivative Interactions” (Molecules, 2021).

This experiment has as its target T1, Lysozyme from chicken egg white (Gallus gallus, UniProt P00698).
T1 construct: gene LYZ
The experiment can be described thus: isothermal titration calorimetry (VP-ITC). It counts as binding. Conditions: read-out: K. For orientation: In ITC the heat of successive injections is recorded.

T1 sequence (P00698 19-147): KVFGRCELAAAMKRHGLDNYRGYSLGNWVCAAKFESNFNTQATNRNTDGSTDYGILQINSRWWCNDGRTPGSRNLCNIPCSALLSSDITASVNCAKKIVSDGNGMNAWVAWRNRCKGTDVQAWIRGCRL

In the case of `O=S(=O)(O)CCCSc1nc2ccccc2s1` [BTS, 3-(2-Benzohiazolylthio)-1-propane-sulfonic acid sodium salt], the Kd stood at 2.62 µM.
